# Entries after “also recorded” stand apart in the source; their conditions may differ.
# Columns and labels:
# B6 control mice = tested on: B6 control mice; parameters: method as in PMID 33669336; conditions: cited from earlier work
# BTBR mice [1] = assay: Social approach test (SAT), social novelty preference (novel mouse vs familiar mouse); format: in vivo; conditions: for preference to novel mouse (NM) over familiar mouse (FM) vs VEH-treated BTBR mice: p < 0.001
# Protocol: (§1) All the mice were randomly divided into nine groups of 5–7 mice each. The mice were injected intraperitonially once daily for 21 days with different doses of ST2223 (2.5, 5, and 10 mg/kg, i.p.), ARP 1 mg/kg or vehicle (1% DMSO in 0.9% normal saline). Group I, B6 mice were injected with vehicle served as control. Group II, BTBR mice were treated with vehicle. Groups III–V, BTBR mice received i.p. injections of different doses of ST2223 (2.5, 5, and 10 mg/kg, i.p.), respectively. Group VI, BTBR mice were injected with ARP (1 mg/kg, i.p.). For abrogation studies, Group VII, BTBR mice were treated with ST2223 (5 mg/kg, i.p.) along with RAM (10 mg/kg, i.p.). Group VIII, B6 mice were co-injected with vehicle and RAM (10 mg/kg, i.p). All treatments and vehicle (VEH) were administered 30–45 min before each behavioral test. The doses of these drugs were selected based on previous reports. Behavioral testing was performed between 9:00 am and 3:00 pm in an order randomized by group and in the following sequence: social approach test (SAT) and open field locomotor test (OFL). The chronic treatment started one week before the behavioral test and was continued for a total of 21 days as described above (Figure 7). Following behavioral tests, i.e., on day 21 of systemic treatment, five of the animals were sacrificed. The animals were deeply anesthetized with pentobarbital (40 mg/kg, i.p., body weight). To wash out the blood, cardiac perfusion was carried out using 0.01 M phosphate-buffered saline (PBS) at pH 7.4. The brains were quickly removed and placed on an ice plate, where the cerebellum, hippocampus, prefrontal cortex, and striatum were excised from the brain and snap-frozen in liquid nitrogen for later LC-MS/MS analysis.
# The social approach test (SAT) was performed using an automated three-chamber device (EthoVision® Software, Noldus, The Netherlands) as previously described. The transparent polycarbonate chamber is rectangular and is composed of three interconnected partitions (homemade), which are separated by two sliding doors. […] For 10 min, the test mouse was allowed to explore all three chambers and cups, and the time spent interacting with NO and NM (sniffing) was automatically recorded by EthoVision® Software. […] The study mouse is allowed to explore the three chambers for 10 min, and the time spent for interacting with both mice was automatically recorded, to assess social novelty preference. […] To allow the direct comparison of social behavior between the treated groups, the sociability index (SI) and social novelty index (SNI) were calculated with the following formula, as previously described: SI=(Time exploring NM−Time exploring NO)/(Time exploring NM+Time exploring NO) SNI=(Time exploring NM−Time exploring FM)/(Time exploring NM+Time exploring FM)
# [2] = tested on: histamine levels in BTBR mice brain; assay: Histamine levels by LC-MS/MS in brain regions; format: in vivo; parameters: key to Histamine level: ↔: No significant alterations; ↑: significant increase; ↑↑: additional significant increase vs. ST-2223-treated mice; ↓: significant decrease; conditions: ST-2223 5 mg/kg i.p. chronic, vs VEH-treated BTBR mice
# Protocol: as §1
# Perfusion was done on anesthetized animals using 1X PBS as described previously. Different regions of the brain were snap frozen. Frozen tissues were then weighed and homogenized in a 10-fold volume of acetonitrile. For 50mg of tissue, 500 µL of acetonitrile and Internal standard mix were added and homogenized. Homogenates were centrifuged at 15,000 rcf for 15 min at 4 °C. Tissue levels of dopamine, acetylcholine, histamine, and their metabolites were assessed using LC-MS/MS. LC-MS/MS analysis was conducted utilizing Waters BEH C18 COLUMN (2.1 × 100 mm, 1.7 µm) using Waters Acquity UPLC Binary Solvent Manager and FTN Sample Manager. The system was run in gradient mode with mobile phase A consisting of LC-MS GRADE WATER + 0.1% FORMIC ACID and mobile phase B consisting of 100% ACETONITRILE. Mobile phase was duly filtered through 0.2 µm filter and degassed ultrasonically for 15 min prior to use. Separations were performed at room temperature with 0.3 mL/min flow rate gradient starting with 90% of A for up to 0.5 min. Then, % of A was decreased gradually until it reached 20% at 2.5 min after which at 3 min %A was brought back to the initial condition and left for equilibration for 2 more minutes before the next injection (total 5 min run time). The injection volume was kept at 1 µL. Mass spectrometric detection was performed in multiple reaction monitoring (MRM) mode with positive electrospray ionization (ESI+) on Xevo TQS mass spectrometer (Waters, Milford, MA) equipped with an electrospray ionization (ESI) source and triple quadrupole mass analyzer. MRM transitions and instrument parameters were set by tuning the instrument by infusing each analyte. MRM transitions taken for quantification were 146.2 > 87.1 for Acetylcholine, 112.2 > 95.2 for Histamine, 154.1 > 137.2 for Dopamine, 150.2 > 91.3 for Acetylcholine D4, and […] > 99.3 for Histamine D4. Capillary Voltage, Source Offset, Source Temperature, De solvation Temperature, Cone Gas Flow, De solvation Gas Flow, Collision Gas Flow, Nebulizer Gas Flow were set as 3.0 (kV), 60.0 (V), 150 (°C), 550 (°C), 150 (L/Hr), 1000 (L/Hr), 0.13 (mL/min), and 7 (Bar), correspondingly. […]
# BTBR mice [3] = assay: Social approach test (SAT), sociability (novel mouse vs novel object); format: in vivo
# Protocol: as §1
# The social approach test (SAT) was performed using an automated three-chamber device (EthoVision® Software, Noldus, The Netherlands) as previously described. The transparent polycarbonate chamber is rectangular and is composed of three interconnected partitions (homemade), which are separated by two sliding doors. In brief, after 10 min of habituation, the study mouse was placed in the central chamber with the doors opened, and the mouse was given the choice to interact with either an empty plastic cup located in one side chamber, referred to as a novel object (NO), or a similar plastic cup with an unfamiliar mouse inside it located in the opposite chamber, referred to as a novel mouse (NM), which was matched in age, sex, and strain with test mouse. To avoid innate side preferences, the plastic cup for NO and NM were randomly placed in either chamber and the placement was changed between studies and between mice. For 10 min, the test mouse was allowed to explore all three chambers and cups, and the time spent interacting with NO and NM (sniffing) was automatically recorded by EthoVision® Software. Immediately after this session, a novel mouse is kept in the empty cup and is referred to as novel mouse (NM), and the mouse in the other cup from the earlier session is referred to as familiar mouse (FM). The study mouse is allowed to explore the three chambers for 10 min, and the time spent for interacting with both mice was automatically recorded, to assess social novelty preference. Eight groups of 7 mice/group were used for the SAT. To allow the direct comparison of social behavior between the treated groups, the sociability index (SI) and social novelty index (SNI) were calculated with the following formula, as previously described: SI=(Time exploring NM−Time exploring NO)/(Time exploring NM+Time exploring NO) SNI=(Time exploring NM−Time exploring FM)/(Time exploring NM+Time exploring FM)
structure (smiles),measurement,setting,value
"COc1ccccc1N1CCN(CCCCNC(=O)c2ccc3cc(OCCCN4CCCCC4)ccc3c2)CC1 [ST-2223, N-(4-(4-(2-methoxyphenyl)piperazin-1-yl)butyl)-6-(3-(piperidin-1-yl)propoxy)-2-naphthamide]",behavioral alterations in B6 control mice,B6 control mice,no behavioral alterations
same,social novelty index (SNI),"BTBR mice [1]; ST-2223 5 mg/kg i.p. chronic, no significant difference to control B6",significantly improved social novelty performance
same,preference to novel mouse (NM) over familiar mouse (FM) vs VEH-treated BTBR mice,BTBR mice [1]; ST-2223 5 mg/kg i.p. chronic,enhanced preference to stranger NM over FM
same,preference to novel mouse (NM) over familiar mouse (FM) vs VEH-treated BTBR mice,BTBR mice [1]; ST-2223 10 mg/kg i.p. chronic,enhanced preference to stranger NM over FM
same,Histamine level,[2]; Cerebellum,↑ ^b
same,Histamine level,[2]; Hippocampus,↔
same,Histamine level,[2]; Prefrontal cortex,↔
same,levels of histamine in brain regions,[2]; 5 mg/kg,significantly increased the levels of histamine in cerebellum and striatum; also recorded: without significant enhancement of brain histamine in hippocampal tissues
same,Histamine level,[2]; Striatum,↑ ^b
same,time spent with novel mouse (NM) vs novel object (NO),"BTBR mice [3]; ST-2223 2.5 mg/kg i.p. chronic, p = 0.48",unsuccessful to exert remarked improvement
same,exploring time spent with NM vs VEH-treated BTBR mice,"BTBR mice [3]; ST-2223 2.5 mg/kg i.p. chronic, p > 0.05",not a significant level
same,exploring time spent with NM vs VEH-treated BTBR mice,"BTBR mice [3]; ST-2223 5 mg/kg i.p. chronic, p < 0.001",significantly improved exploring time spent with NM
same,time spent with novel mouse (NM) vs novel object (NO),"BTBR mice [3]; ST-2223 5 mg/kg i.p. chronic, p < 0.01",significantly enhanced time spent with the NM
same,sociability index (SI) vs VEH-treated BTBR mice,"BTBR mice [3]; ST-2223 5 mg/kg i.p. chronic, p < 0.05",significant improvement in sociability
same,time spent with novel mouse (NM) vs novel object (NO),"BTBR mice [3]; ST-2223 10 mg/kg i.p. chronic, p = 0.53",unsuccessful to exert remarked improvement
